How the values were obtained:
Test in all cases: Test C greenhouse herbicide test, pre- and postemergence
Type in all cases: in vivo
[1] = tested on: blackgrass (Alopecurus myosuroides)
Outline: (§1)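 Preemergence: seeds sown in a loam soil–sand blend and sprayed with test chemicals in a non-phytotoxic solvent mixture containing surfactant. Postemergence: plants grown in peat-based medium and treated at 2 to 18 cm (1- to 4-leaf stage). After 13 to 15 d in a greenhouse, injury was visually rated 0–100 against controls.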

[2] = tested on: corn (Zea mays)
Outline: as §1

[3] = tested on: crabgrass, large (large crabgrass, Digitaria sanguinalis)
Outline: as §1

[4] = tested on: foxtail, giant (giant foxtail, Setaria faberii)
Outline: as §1

[5] = tested on: galium (catchweed bedstraw, Galium aparine)
Outline: as §1

[6] = tested on: johnsongrass (Sorghum halepense)
Outline: as §1

[7] = tested on: lambsquarters (Chenopodium album)
Outline: as §1

[8] = tested on: morningglory (Ipomoea coccinea)
Outline: as §1

[9] = tested on: nutsedge, yellow (yellow nutsedge, Cyperus esculentus)
Outline: as §1

[10] = tested on: oilseed rape (Brassica napus)
Outline: as §1

[11] = tested on: pigweed (Amaranthus retroflexus)
Outline: as §1

[12] = tested on: ryegrass, Italian (Italian ryegrass, Lolium multiflorum)
Outline: as §1

[13] = tested on: soybean (Glycine max)
Outline: as §1

[14] = tested on: velvetleaf (Abutilon theophrasti)
Outline: as §1

[15] = tested on: waterhemp (common waterhemp, Amaranthus rudis)
Outline: as §1

[16] = tested on: wheat (winter wheat, Triticum aestivum)
Outline: as §1

[17] = Postemergence, 31 g ai/ha, scale 0 to 100 (0 no effect, 100 complete control)
[18] = Postemergence, 125 g ai/ha, scale 0 to 100, 0 is no effect, 100 is complete control
[19] = Postemergence, 250 g ai/ha, scale 0 to 100, 0 no effect, 100 complete control, 13 to 15 d
[20] = Preemergence, 31 g ai/ha, scale 0 to 100, 0 is no effect, 100 is complete control
[21] = Preemergence, 62 g ai/ha, scale 0 to 100, 0 is no effect, 100 is complete control
[22] = Preemergence, 125 g ai/ha, scale 0 to 100, 0 is no effect, 100 is complete control
[23] = Preemergence, 250 g ai/ha, scale 0 to 100 (0 no effect, 100 complete control)
[24] = postemergence, 62 g ai/ha, scale 0 to 100, 0 no effect, 100 complete control

SMILES: CCC(=O)Oc1c(C)nn(C)c(=O)c1-c1c(C)sc2ccc(Cl)cc12 [Compound 109]
- Plant response rating, Blackgrass [1, 17]: 20
- Plant response rating, Blackgrass [1, 18]: 50
- Plant response rating, Blackgrass [1, 19]: 80
- Plant response rating, Blackgrass [1, 20]: 35
- Plant response rating, Blackgrass [1, 21]: 30
- Plant response rating, Blackgrass [1, 22]: 85
- Blackgrass plant response rating [1, 23]: 90
- Blackgrass plant response rating [1, 24]: 25
- Plant response rating, Corn [2, 17]: 0
- Plant response rating, Corn [2, 18]: 35
- Plant response rating, Corn [2, 19]: 50
- Plant response rating, Corn [2, 20]: 5
- Plant response rating, Corn [2, 21]: 0
- Plant response rating, Corn [2, 22]: 0
- Corn plant response rating [2, 23]: 0
- Corn plant response rating [2, 24]: 15
- Plant response rating, Crabgrass, Large [3, 17]: 35
- Plant response rating, Crabgrass, Large [3, 18]: 60
- Plant response rating, Crabgrass, Large [3, 19]: 60
- Plant response rating, Crabgrass, Large [3, 20]: 40
- Plant response rating, Crabgrass, Large [3, 21]: 65
- Plant response rating, Crabgrass, Large [3, 22]: 70
- Crabgrass, Large plant response rating [3, 23]: 80
- Crabgrass, Large plant response rating [3, 24]: 40
- Plant response rating, Foxtail, Giant [4, 17]: 45
- Plant response rating, Foxtail, Giant [4, 18]: 80
- Plant response rating, Foxtail, Giant [4, 19]: 85
- Plant response rating, Foxtail, Giant [4, 20]: 65
- Plant response rating, Foxtail, Giant [4, 21]: 85
- Plant response rating, Foxtail, Giant [4, 22]: 85
- Foxtail, Giant plant response rating [4, 23]: 90
- Plant response rating, Galium [5, 17]: 98
- Plant response rating, Galium [5, 18]: 100
- Plant response rating, Galium [5, 19]: 100
- Plant response rating, Galium [5, 20]: 90
- Plant response rating, Galium [5, 21]: 90
- Plant response rating, Galium [5, 22]: 90
- Galium plant response rating [5, 23]: 90
- Plant response rating, Johnsongrass [6, 17]: 0
- Plant response rating, Johnsongrass [6, 18]: 5
- Plant response rating, Johnsongrass [6, 19]: 5
- Plant response rating, Johnsongrass [6, 20]: 0
- Plant response rating, Johnsongrass [6, 21]: 30
- Plant response rating, Johnsongrass [6, 22]: 40
- Johnsongrass plant response rating [6, 23]: 65
- Plant response rating, Lambsquarters [7, 17]: 95
- Plant response rating, Lambsquarters [7, 18]: 100
- Plant response rating, Lambsquarters [7, 19]: 100
- Plant response rating, Lambsquarters [7, 20]: 80
- Plant response rating, Lambsquarters [7, 21]: 90
- Plant response rating, Lambsquarters [7, 22]: 90
- Lambsquarters plant response rating [7, 23]: 100
- Plant response rating, Morningglory [8, 17]: 95
- Plant response rating, Morningglory [8, 18]: 100
- Plant response rating, Morningglory [8, 19]: 100
- Plant response rating, Morningglory [8, 20]: 85
- Plant response rating, Morningglory [8, 21]: 85
- Plant response rating, Morningglory [8, 22]: 90
- Morningglory plant response rating [8, 23]: 98
- Plant response rating, Nutsedge, Yellow [9, 17]: 45
- Plant response rating, Nutsedge, Yellow [9, 18]: 80
- Plant response rating, Nutsedge, Yellow [9, 19]: 80
- Plant response rating, Nutsedge, Yellow [9, 20]: 40
- Plant response rating, Nutsedge, Yellow [9, 21]: 70
- Plant response rating, Nutsedge, Yellow [9, 22]: 90
- Nutsedge, Yellow plant response rating [9, 23]: 80
- Plant response rating, Oilseed Rape [10, 17]: 70
- Plant response rating, Oilseed Rape [10, 18]: 95
- Plant response rating, Oilseed Rape [10, 19]: 95
- Plant response rating, Oilseed Rape [10, 20]: 5
- Plant response rating, Oilseed Rape [10, 21]: 85
- Plant response rating, Oilseed Rape [10, 22]: 85
- Oilseed Rape plant response rating [10, 23]: 90
- Plant response rating, Pigweed [11, 17]: 95
- Plant response rating, Pigweed [11, 18]: 100
- Plant response rating, Pigweed [11, 19]: 100
- Plant response rating, Pigweed [11, 20]: 100
- Plant response rating, Pigweed [11, 21]: 100
- Plant response rating, Pigweed [11, 22]: 100
- Pigweed plant response rating [11, 23]: 100
- Plant response rating, Ryegrass, Italian [12, 17]: 90
- Plant response rating, Ryegrass, Italian [12, 18]: 90
- Plant response rating, Ryegrass, Italian [12, 19]: 90
- Plant response rating, Ryegrass, Italian [12, 20]: 70
- Plant response rating, Ryegrass, Italian [12, 21]: 90
- Plant response rating, Ryegrass, Italian [12, 22]: 90
- Ryegrass, Italian plant response rating [12, 23]: 95
- Plant response rating, Soybean [13, 17]: 0
- Plant response rating, Soybean [13, 18]: 30
- Plant response rating, Soybean [13, 19]: 25
- Plant response rating, Soybean [13, 20]: 0
- Plant response rating, Soybean [13, 21]: 0
- Plant response rating, Soybean [13, 22]: 0
- Soybean plant response rating [13, 23]: 0
- Plant response rating, Velvetleaf [14, 17]: 75
- Plant response rating, Velvetleaf [14, 18]: 98
- Plant response rating, Velvetleaf [14, 19]: 100
- Plant response rating, Velvetleaf [14, 20]: 60
- Plant response rating, Velvetleaf [14, 21]: 75
- Plant response rating, Velvetleaf [14, 22]: 80
- Velvetleaf plant response rating [14, 23]: 90
- Plant response rating, Waterhemp [15, 17]: 80
- Plant response rating, Waterhemp [15, 18]: 90
- Plant response rating, Waterhemp [15, 19]: 100
- Plant response rating, Waterhemp [15, 20]: 80
- Plant response rating, Waterhemp [15, 21]: 90
- Plant response rating, Waterhemp [15, 22]: 100
- Waterhemp plant response rating [15, 23]: 100
- Plant response rating, Wheat [16, 17]: 0
- Plant response rating, Wheat [16, 18]: 10
- Plant response rating, Wheat [16, 19]: 35
- Plant response rating, Wheat [16, 20]: 0
- Plant response rating, Wheat [16, 21]: 10
- Plant response rating, Wheat [16, 22]: 10
- Wheat plant response rating [16, 23]: 15

— patent US10597388B2, “Pyridazinone herbicides” (FMC CORPORATION, priority 2014, dated 2020)
